Assay results reported in paper PMC10831786 (Virus Research, 2024).
Structures can show the parent of a compound that is named as a salt.

Experiments:
Entamoeba histolytica [1] = test: Growth inhibition of Entamoeba histolytica in vitro (literature); assay type: cell-based; conditions: anti-coronavirus IC50 versus amebae
Entamoeba histolytica [2] = conditions: in vitro; ref Burchard and Mirelman, 1988; cited from earlier work
sodium channel = target: sodium channel; design: method as in Lemmens-Gruber et al., 1997; conditions: ref Lemmens-Gruber et al., 1997; read-out: Kd, sodium channel reduction; cited from earlier work

| Compound | Fold, antiviral concentrations lower than those required to kill amebae (Entamoeba histolytica [1]) | Concentration required to inhibit growth of Entamoeba histolytica (Entamoeba histolytica [2]) | Kd (sodium channel) |
| --- | --- | --- | --- |
| CCC1=C(C[C@H]2NCCc3cc(OC)c(OC)cc32)C[C@H]2c3cc(OC)c(OC)cc3CCN2C1 [DHE4, 4H-Benzo[a]quinolizine, 3-ethyl-1,6,7,11b-tetrahydro-9,10-dimethoxy-2-[[(1R)-1,2,3,4-tetrahydro-6,7-dimethoxy-1-isoquinolinyl]methyl]-, (11bS)-] | 125–250 fold | – | – |
| CC[C@H]1CN2CCc3cc(OC)c(OC)cc3[C@@H]2C[C@@H]1C[C@H]1NCCc2cc(OC)c(OC)cc21 [Emetine, 2H-Benzoaquinolizine, 3-ethyl-1,3,4,6,7,11b-hexahydro-9,10-dimethoxy-2-(1R)-1,2,3,4-tetrahydro-6,7-dimethoxy-1-isoquinolinylmethyl-, dihydrochloride, (2S,3R,11bS)-, reference compound] | – | 12 to 25 µM | 15 µM |
